The subject of one assay is A-549. The assay is described as follows: A-549 cell viability in co-culture with Jurkat T cells (flow cytometry count). It is filed as cell-based, human. The settings on record: 24 h; for viability at 100 µM: Homo sapiens, A549, A-549/Jurkat T co-culture, IFN-γ stimulated, read-out: percentage of living A-549 cells relative to non-treated co-cultures; for inhibition rate of A-549 cell viability: co-cultured with Jurkat T cells, 100 μM. The protocol: (§1) The effect of the synthesized compounds on tumor cell proliferation in the presence of PD-1-expressing Jurkat T cells was also studied. This assay was carried out, as in the previous experiments, in the HT29, MCF7, and A549 cell lines (see Table 4). Interferon γ-stimulated cancer cells were treated for 24 h with the compounds at 100 μM in presence of Jurkat T cells. Then, cells were counted using flow cytometry. The percentage of living cells relative to non-treated co-cultures (control) was established for both cancer and immune cells in every co-culture.
(§2) To study the effect of the compounds on the cell viability in co-culture with Jurkat T cells or THP-1 cells, 10^5 or 2 × 10^5 of the corresponding cancer cells line per well were seeded and incubated for 24 h, then the medium was changed by one cell culture medium supplemented with IFN-γ (10 ng/mL; human, Invitrogen®) and containing 5 × 10^5 or 10^5 Jurkat T cells or THP-1, respectively, per well and 100 µM of the corresponding compound or DMSO for the […] control. After 24 h/48 h of incubation, supernatants were collected to determine Jurkat T or THP-1 living cells, and on the other hand, corresponding cancer cells were collected with trypsin. Both types of suspension cells were fixed with 4% in PBS paraformaldehyde and counted by flow cytometry.

The next assay relates to Jurkat T cells. The assay is described as follows: Jurkat T cell viability in co-culture with cancer cells (flow cytometry count). It is filed as cell-based. The following applies: Homo sapiens, 24 h, read-out: percentage of living Jurkat cells relative to non-treated co-cultures. The protocol:
as §1, §2
For orientation: In flow cytometry, cells or beads pass a laser one at a time.

For a further assay, the system named is MCF-7. The assay is described as follows: MCF-7 cell viability in co-culture with Jurkat T cells (flow cytometry count). It counts as cell-based, human. The following applies: 24 h; for viability at 100 µM: Homo sapiens, MCF7, MCF-7/Jurkat T co-culture, IFN-γ stimulated, read-out: percentage of living MCF-7 cells relative to non-treated co-cultures. As for the experimental part:
as §1, §2

The target of the next assay is T1, membrane PD-L1 (Homo sapiens, UniProt Q9NZQ7).
T1 construct: Alexa Fluor® 647 Rabbit monoclonal Anti-PD-L1 (ab215251); endogenous in cells; host or cells: HT-29, MCF-7, A-549 (A17: MCF-7 only; A14: IFN-gamma-stimulated cancer cells co-cultured with Jurkat T cells)
The assay is described as follows: Membrane PD-L1 relative quantification by flow cytometry in cancer cells co-cultured with Jurkat T cells. The following applies: Jurkat, 24 h; for remaining activity at 100 µM: relative to non-treated co-cultures, read-out: % PDL1 (membrane); for inhibition at 100 µM: HT-29 co-cultured with Jurkat T cells, read-out: membrane PD-L1 inhibition rate. It is filed as cell-based. The protocol:
(§3) We determined by flow cytometry the effect of these compounds on the expression of membrane PD-L1 in cancer cells when they were co-cultured with immune cells. Thus, interferon γ-stimulated cancer cells were treated for 24 h with the compounds at 100 μM in presence of Jurkat T cells. Then, cells were fixed and treated with anti-PD-L1 conjugated to AlexaFluor®647. We took advantage of the versatility of flow cytometry to simultaneously measure the expression of membrane VEGFR-2 by using anti-VEGFR-2 conjugated to fluorescein.
(§4) To study the effect of the compounds on every biological target in co-cultured cancer cell lines, the compounds were incubated for 24h as described before.
(§5) To detect membrane PD-L1 and VEGFR-2, after the cell treatments, they were collected, fixed with 4% in PBS paraformaldehyde, and stained with FITC Mouse monoclonal Anti-Human VEGFR-2 (ab184903) and Alexa Fluor® 647 Rabbit monoclonal Anti-PD-L1 (ab215251).

A further assay relates to HT-29. Description: HT-29 cell viability in co-culture with Jurkat T cells (flow cytometry count). The settings on record: 24 h; for viability at 100 µM: Homo sapiens, HT-29/Jurkat T co-culture, IFN-γ stimulated, read-out: percentage of living HT-29 cells relative to non-treated co-cultures. It is filed as cell-based, human. As for the experimental part: as §1, §2
The target of a further assay is PD-L1 (Homo sapiens, UniProt Q9NZQ7). The assay is described as follows: Total PD-L1 relative quantification by flow cytometry in cancer cell lines. It counts as cell-based. Set-up: Alexa Fluor® 647 Rabbit monoclonal Anti-PD-L1 (ab215251); endogenous in cells; host or cells: HT-29. The settings on record: 24 h, total PD-L1 relative to negative control (DMSO). The protocol:
(§6) The effect of these triazole derivates on c-Myc and PD-L1 was measured in three different cancer cell lines (HT-29, MCF-7, A-549) by flow cytometry. Thus, cells were incubated for 24 h with the corresponding compound at a concentration of 100 μM. Dimethyl sulfoxide (DMSO)-treated cells were used as the negative control, and a PD-L1 inhibitor, BMS-8 [29, 31], was used as a reference control. After permeabilization and fixation, cells were treated with anti-PD-L1 conjugated to AlexaFluor®647 and anti-c-Myc conjugated to fluorescein to determine the amount of both targets related to the negative control. Table 1 show the results in terms of the percentage of the detected target in relation to the negative control. This assay was carried out on cancer cell lines HT-29, MCF-7, and A-549.
(§7) To study the effect of the compounds on every biological target in cancer cell lines, the compounds were used at a 100 µM dose.
(§8) For the assay, 10^5 cells per well were incubated for 24 h with the corresponding dose of the tested compound in a total volume of 500 μL of their growth media.
(§9) To detect total PD-L1 and c-Myc, after the cell treatments, they were collected and fixed with 4% in PBS paraformaldehyde. After fixation, a treatment with 0,5% in PBS Triton™ X-100 was performed, and finally, cells were stained with FITC Mouse monoclonal Anti-c-Myc (ab223913) and Alexa Fluor® 647 Rabbit monoclonal Anti-PD-L1 (ab215251).

A further assay has as its system c-Myc. Description: Total c-Myc relative quantification by flow cytometry in cancer cell lines. It is filed as cell-based, human. The following applies: 24 h. As for the experimental part:
as §6, §7, §8, §9

The subject of another assay is membrane VEGFR-2. The assay is described as follows: Membrane VEGFR-2 relative quantification by flow cytometry in cancer cells co-cultured with Jurkat T cells. The following applies: 100 μM, 24 h, relative to non-treated co-cultures. It counts as cell-based, human. As for the experimental part:
as §3, §4, §5

[1] abbreviates: A549 co-cultured with Jurkat T cells.
[2] abbreviates: HT29 co-cultured with Jurkat T cells.
Where [3] appears, read: MCF7 co-cultured with Jurkat T cells.
[4] abbreviates: A-549, 100 µM, relative to negative control (DMSO).
The mark [5] stands for this setting: HT-29, 100 µM, detected target relative to negative control (DMSO).
The mark [6] stands for this setting: MCF-7, 100 µM, relative to negative control (DMSO).
Where [7] appears, read: co-cultured with Jurkat T cells, 100 μM.

In general, inhibition refers to the share of the control response that was lost under treatment.

Where two headings read alike, the source gives them in different places.

T1 sequence (Q9NZQ7 19-290): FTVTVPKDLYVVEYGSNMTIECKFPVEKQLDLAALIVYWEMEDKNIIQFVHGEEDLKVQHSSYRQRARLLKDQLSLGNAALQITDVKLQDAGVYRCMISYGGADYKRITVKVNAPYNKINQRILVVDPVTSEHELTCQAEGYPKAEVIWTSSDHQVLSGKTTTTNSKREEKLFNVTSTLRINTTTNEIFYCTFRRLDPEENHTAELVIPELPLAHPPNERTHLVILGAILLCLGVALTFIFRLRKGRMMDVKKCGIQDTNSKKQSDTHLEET
Sequence of PD-L1 (Q9NZQ7 19-290): as above

For `COc1ccc(-c2cn(CCc3ccc(CCOC(c4ccccc4)(c4ccc(OC)cc4)c4ccc(OC)cc4)cc3)nn2)cc1` [Compound 9, 1-(4-(2-(bis(4-methoxyphenyl)(phenyl)methoxy)ethyl)phenethyl)-4-(4-methoxyphenyl)-1H-1,2,3-triazole], the viability at 100 µM was found to be 106 ± 1% in the assay on A-549; 462 ± 99% in the assay with Jurkat T cells (A-549/Jurkat T co-culture); 56 ± 18% in the assay with Jurkat T cells (HT-29/Jurkat T co-culture); 84 ± 17% with Jurkat T cells (MCF-7/Jurkat T co-culture); 69 ± 9% in the assay with MCF-7; 51 ± 17% with HT-29. In addition, in the assay with A-549, the “inhibition rate of A-549 cell viability” value is recorded as “no activity”. Further, the remaining activity at 100 µM on membrane PD-L1 (setting [1]) turned out to be 82 ± 2%; at membrane PD-L1 (setting [2]), 63 ± 11%; at membrane PD-L1 (setting [3]) it was 40 ± 5%; at PD-L1 (A549, A-549, 100 µM), 92 ± 21%; on PD-L1 (HT-29, 100 µM), 57 ± 8%; at PD-L1 (MCF7, MCF-7, 100 µM), 89 ± 5%. Besides, the inhibition at 100 µM at membrane PD-L1 was in the range of 40 to 50%. Also, the c-Myc inhibition rate in the assay on c-Myc (A-549, 100 μM) stood at 40%. Further, the “% c-Myc” value in the assay on c-Myc (setting [4]) stood at 61 ± 3%; in the assay with c-Myc (setting [5]), 71 ± 10%; with c-Myc (setting [6]) it was 88 ± 4%. Also, the “%VEGFR2 (membrane)” value stood at 92 ± 3% in the assay on membrane VEGFR-2 (setting [1]), 76 ± 13% in the assay on membrane VEGFR-2 (setting [2]) and 76 ± 10% in the assay on membrane VEGFR-2 (setting [3]).

On to `OCCc1ccc(CCn2cc(-c3cccc(Br)c3)nn2)cc1` [Compound 6, 2-(4-(2-(4-(3-bromophenyl)-1H-1,2,3-triazol-1-yl)ethyl)phenyl)ethan-1-ol], for which the viability at 100 µM turned out to be 75 ± 3% in the assay on A-549; 119 ± 6% in the assay on Jurkat T cells (A-549/Jurkat T co-culture); 116 ± 7% with Jurkat T cells (HT-29/Jurkat T co-culture); 119 ± 1% in the assay on Jurkat T cells (MCF-7/Jurkat T co-culture); 65 ± 8% with MCF-7; 104 ± 4% with HT-29. Besides, in the assay on A-549, the “inhibition rate of A-549 cell viability” value was “around 30%”. Also, the remaining activity at 100 µM at membrane PD-L1 (setting [1]) is 75 ± 1%; at membrane PD-L1 (setting [2]), 63 ± 6%; at membrane PD-L1 (setting [3]) it was 66 ± 11%; at PD-L1 (A549, A-549, 100 µM), 62 ± 4%; at PD-L1 (HT-29, 100 µM), 104 ± 6%; at PD-L1 (MCF7, MCF-7, 100 µM) it was 110 ± 4%. The inhibition at 100 µM at membrane PD-L1 is 40 to 50%. Besides, the “% c-Myc” value in the assay with c-Myc (setting [4]) was 84 ± 9%; in the assay on c-Myc (setting [5]), 149 ± 12%; with c-Myc (setting [6]), 81 ± 6%. For the same molecule, the “%VEGFR2 (membrane)” value with membrane VEGFR-2 (setting [1]) turned out to be 87 ± 7%; with membrane VEGFR-2 (setting [2]) it was 98 ± 2%; in the assay on membrane VEGFR-2 (setting [3]), 98 ± 6%.

On to `COc1ccc(C(OCCc2ccc(CCn3cc(-c4cccc(OC)c4)nn3)cc2)(c2ccccc2)c2ccc(OC)cc2)cc1` [Compound 11, 1-(4-(2-(bis(4-methoxyphenyl)(phenyl)methoxy)ethyl)phenethyl)-4-(3-methoxyphenyl)-1H-1,2,3-triazole], for which the viability at 100 µM was found to be 102 ± 4% with A-549; 511 ± 86% in the assay with Jurkat T cells (A-549/Jurkat T co-culture); 76 ± 52% in the assay with Jurkat T cells (HT-29/Jurkat T co-culture); 79 ± 13% in the assay on Jurkat T cells (MCF-7/Jurkat T co-culture); 50 ± 1% in the assay with MCF-7; 65 ± 6% in the assay on HT-29. The “inhibition rate of MCF-7 cell viability” value in the assay with MCF-7 (setting [7]) is recorded as “half”. The remaining activity at 100 µM came to 94 ± 1% on membrane PD-L1 (setting [1]); 104 ± 14% at membrane PD-L1 (setting [2]); 48 ± 7% on membrane PD-L1 (setting [3]); 104 ± 1% on PD-L1 (A549, A-549, 100 µM); 48 ± 4% at PD-L1 (HT-29, 100 µM); 108 ± 7% at PD-L1 (MCF7, MCF-7, 100 µM). The “% c-Myc” value with c-Myc (setting [4]) is 55 ± 4%; with c-Myc (setting [5]), 50 ± 3%; in the assay on c-Myc (setting [6]), 81 ± 2%. In addition, in the assay with c-Myc (HT-29, 100 μM), the c-Myc inhibition was determined as 50%. The “%VEGFR2 (membrane)” value turned out to be 85 ± 1% with membrane VEGFR-2 (setting [1]), 79 ± 10% in the assay on membrane VEGFR-2 (setting [2]) and 92 ± 10% with membrane VEGFR-2 (setting [3]).

As for `OCCc1ccc(CCn2cc(-c3ccc(Br)cc3)nn2)cc1` [Compound 4, 2-(4-(2-(4-(4-bromophenyl)-1H-1,2,3-triazol-1-yl)ethyl)phenyl)ethan-1-ol], the viability at 100 µM with A-549 was 79 ± 5%; with Jurkat T cells (A-549/Jurkat T co-culture) it was 122 ± 11%; in the assay with Jurkat T cells (HT-29/Jurkat T co-culture), 145 ± 9%; in the assay on Jurkat T cells (MCF-7/Jurkat T co-culture) it was 218 ± 69%; in the assay with MCF-7, 87 ± 6%; in the assay with HT-29, 115 ± 14%. Further, the “inhibition rate of A-549 cell viability” value with A-549 is listed as “around 30%”. The remaining activity at 100 µM worked out at 80 ± 3% at membrane PD-L1 (setting [1]); 54 ± 3% at membrane PD-L1 (setting [2]); 89 ± 3% on membrane PD-L1 (setting [3]); 55 ± 8% on PD-L1 (A549, A-549, 100 µM); 111 ± 8% at PD-L1 (HT-29, 100 µM); 237 ± 19% on PD-L1 (MCF7, MCF-7, 100 µM). On membrane PD-L1, the inhibition at 100 µM is 40 to 50%. Moreover, the “inhibition rate of HT-29 cell viability” value with HT-29 (setting [7]) is listed as “not active”. The “% c-Myc” value was determined as 95 ± 2% with c-Myc (setting [4]), 108 ± 8% in the assay with c-Myc (setting [5]) and 91 ± 8% in the assay on c-Myc (setting [6]). Moreover, the entries for the “%VEGFR2 (membrane)” value with membrane VEGFR-2 (setting [1]), in the assay with membrane VEGFR-2 (setting [2]) and in the assay with membrane VEGFR-2 (setting [3]) were 99 ± 4%, 94 ± 3% and 121 ± 19%, respectively.

The record behind these values is article PMC9917184, “Synthesis and Biological Evaluation of Potential Oncoimmunomodulator Agents” (International Journal of Molecular Sciences, 2023).
